Drawing on BindingDB's records for doi:10.1021/jm0492397 (Saarland University, 2005), this text covers IC50 for four molecules.

For this test, the target named is T1, Cytochrome P450 11B1, mitochondrial (Homo sapiens, UniProt P15538).
T1 sequence (P15538 whole entry): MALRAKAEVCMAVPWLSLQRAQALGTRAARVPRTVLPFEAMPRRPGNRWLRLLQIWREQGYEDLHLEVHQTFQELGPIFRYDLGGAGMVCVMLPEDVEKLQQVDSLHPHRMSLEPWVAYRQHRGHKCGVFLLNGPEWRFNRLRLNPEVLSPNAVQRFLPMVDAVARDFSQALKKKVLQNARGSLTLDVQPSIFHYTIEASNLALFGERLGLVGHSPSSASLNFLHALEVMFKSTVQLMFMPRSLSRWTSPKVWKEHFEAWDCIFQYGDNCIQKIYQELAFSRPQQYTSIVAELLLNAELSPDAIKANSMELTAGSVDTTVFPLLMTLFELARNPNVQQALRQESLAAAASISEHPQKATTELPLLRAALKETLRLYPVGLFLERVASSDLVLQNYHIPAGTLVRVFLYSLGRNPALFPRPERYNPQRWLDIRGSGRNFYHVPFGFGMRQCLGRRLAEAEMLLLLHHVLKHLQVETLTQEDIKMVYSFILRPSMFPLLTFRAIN
Description: CYP11B assay. The procedure: The enzyme activity was assayed by monitoring the conversion of deoxycorticosterone to corticosterone in the presence of inhibitor compounds. The product formation was monitored by HPTLC using a phosphoimager system.

Each structure is given as a SMILES string.

Usually IC50 stands for the midpoint of a concentration-inhibition curve. With `Brc1ccc2c(c1)CC/C2=C/c1ccncc1` [4-{[(1Z)-5-bromo-2,3-dihydro-1H-inden-1-ylidene]methyl}pyridine], the IC50 came to 877 nM. In the case of `Clc1ccc2c(c1)CC/C2=C/c1ccncc1` [4-{[(1Z)-5-chloro-2,3-dihydro-1H-inden-1-ylidene]methyl}pyridine] it was 1120 nM; in that of `C/C(=C1/CCc2cc(F)ccc21)c1cccnc1` [3-{1-[(1E)-5-fluoro-2,3-dihydro-1H-inden-1-ylidene]ethyl}pyridine], 159 nM.

`C(=C1/CCCc2ccccc21)/c1ccncc1` [4-[(E)-3,4-Dihydronaphthalen-1(2H)-ylidenemethyl]pyridine]: the IC50 was determined as 282 nM.
